In US5597899A, “Tumor necrosis factor muteins” (Hoffmann-La Roche Inc., priority 1993, dated 1997):

Legend:
human TNFR-p55 = assay: Solid phase radioligand competition binding assay, E. coli lysates, TNFR-p55; conditions: for Dilution of E. coli Lysate for 50% Inhibition of 125I-TNFα Binding (ID50) TNFR-p55: 10-fold serial dilutions 10^-2 to 10^-7, < = inhibition but below 50% at 1:100, << = no measurable inhibition at 1:100; for ID50 TNFR-p55 / ID50 TNFR-p75: ratio = 1 no receptor selectivity, > 1 TNFR-p55 selectivity, < 1 TNFR-p75 selectivity
Method: (§1) After 20 min incubation at room temperature 50 μl of 1M MgCl2, 20 μl of 5 mg/ml DNaseI, 50 μl of 5M NaCl and 50 μl of 10% NP-40 were added and the mixture was further incubated at room temperature for 15 min. 0.5 ml of the lysate clarified by centrifugation at 13'000 rpm for 5 min was subjected to ammonium sulfate precipitation (25%-70% cut). The 70% ammonium sulfat pellet was dissolved in 0.2 ml PBS and analyzed by sodium dodecyl sulfate polyacrylamide gel electrophoresis (SDS-PAGE) to confirm presence and approximate amount of the recombinant proteins.
TNFα was labelled by the Iodogen method (Pierce Chemical Company) to a specific activity of about 10-30 μCi/μg. The volume was 100 μl/well and each lysate dilution was assayed in duplicate or triplicate. After three hours at room temperature the wells were thoroughly washed with PBS and counted in a γ-counter. The results are given in Table 2 for lysates comprising the muteins indicated therein.

human TNFR-p75 = assay: Solid phase radioligand competition binding assay, E. coli lysates, TNFR-p75; conditions: 10-fold serial dilutions 10^-2 to 10^-7, < = inhibition but below 50% at 1:100, << = no measurable inhibition at 1:100
Method: as §1, with “10 ml suspensions of E. coli cells transformed and induced as described in Examples I and II were centrifuged at 4'000 rpm for 10 min and resuspended in 0.9 ml of lysis buffer (10 mM Tris-HCl pH 8.0, 5 mM EDTA, 2 mM PMSF, 10 mM benzamidine, 200 units/ml aprotinine and 0.1 mg/ml lysozyme). After” for “After”
96 well microtiter plates were coated with recombinant human […] TNFR-p75-hγ3 and TNFR-p55-hγ3 fusion proteins (extracellular portion of the receptor fused to the Fc part of human IgG3) at a concentration of 0.3 μg/ml and 0.1 μg/ml, respectively, in phosphate buffered saline (PBS, 100 μl/well, overnight at 4° C.) [Loetscher, H. et al. J. Biol. Chem. 266, 18324-18329 (1991); Lesslauer, W. et al. Eur. J. Immunol. 21, 2883-2886 (1991)]. After blocking with blocking buffer (50 mM Tris pH 7.4, 140 mM NaCl, 5 mM EDTA, 0.02% NAN3, 1% defatted milk powder) the microtiter plate was washed with PBS and incubated in blocking buffer containing 0.1% defatted milk powder with 10 ng/ml human wild-type ^125 I-TNFα and various dilutions of E. coli lysates ranging from 10^-2 to 10^-7 (10-fold serial dilutions). TNFα was labelled by the Iodogen method (Pierce Chemical Company) to a specific activity of about 10-30 μCi/μg. The volume was 100 μl/well and each lysate dilution was assayed in duplicate or triplicate. After three hours at room temperature the wells were thoroughly washed with PBS and counted in a γ-counter. The results are given in Table 2 for lysates comprising the muteins indicated therein.

Row | Substance | Dilution of E. coli Lysate for 50% Inhibition of 125I-TNFα Binding (ID50) TNFR-p55 (human TNFR-p55) | ID50 TNFR-p55 / ID50 TNFR-p75 (human TNFR-p55) | Dilution of E. coli Lysate for 50% Inhibition of 125I-TNFα Binding (ID50) TNFR-p75 (human TNFR-p75)
1 | A33D: human TNFα mutein A33D | < 100 fold | > 1 | < 100 fold
2 | A33T: human TNFα mutein A33T | 1,110 fold | 0.9 | 1,250 fold
3 | A145D: human TNFα mutein A145D | 5,000 fold | 0.7 | 6,670 fold
4 | A145G: human TNFα mutein A145G | 2,500 fold | 0.4 | 6,670 fold
5 | A145H: human TNFα mutein A145H | 330 fold | 0.2 | 1,670 fold
6 | A145K: human TNFα mutein A145K | < 100 fold | < 0.05 | 1,820 fold
7 | A145S: human TNFα mutein A145S | 14,290 fold | 0.6 | 25,000 fold
8 | A145T: human TNFα mutein A145T | 5,000 fold | 0.7 | 6,670 fold
9 | A145V: human TNFα mutein A145V | 1,000 fold | 0.5 | 2,000 fold
10 | A145Y: human TNFα mutein A145Y | 1,670 fold | 0.1 | 11,110 fold
11 | D143E: human TNFα mutein D143E | < 100 fold | < 0.3 | 330 fold
12 | D143F: human TNFα mutein D143F | < 100 fold | < 0.4 | 250 fold
13 | D143V-A145S: human TNFα mutein D143V-A145S | < 100 fold | < 0.5 | 200 fold
14 | D143V: human TNFα mutein D143V | < 100 fold | < 1 | < 100 fold
15 | D143W: human TNFα mutein D143W | < 100 fold | < 1 | 100 fold
16 | E146R: human TNFα mutein E146R | 6,670 fold | > 67 | < 100 fold
17 | F144D: human TNFα mutein F144D | 5,000 fold | 15.2 | 330 fold
18 | F144G: human TNFα mutein F144G | 2,500 fold | 1.2 | 2,000 fold

Row | Substance | Dilution of E. coli Lysate for 50% Inhibition of 125I-TNFα Binding (ID50) TNFR-p55 (human TNFR-p55) | ID50 TNFR-p55 / ID50 TNFR-p75 (human TNFR-p55) | Dilution of E. coli Lysate for 50% Inhibition of 125I-TNFα Binding (ID50) TNFR-p75 (human TNFR-p75)
19 | F144L: human TNFα mutein F144L | 5,000 fold | 1 | 5,000 fold
20 | F144R: human TNFα mutein F144R | 2,500 fold | 7.6 | 330 fold
21 | F144W: human TNFα mutein F144W | 400 fold | 2.2 | 180 fold
22 | F144Y: human TNFα mutein F144Y | 2,860 fold | 1 | 2,860 fold
23 | H73Q: human TNFα mutein H73Q | 10,000 fold | 1 | 10,000 fold
24 | H73T: human TNFα mutein H73T | 2,000 fold | 1 | 2,000 fold
25 | I97K: human TNFα mutein I97K | 143 fold | > 1.4 | < 100 fold
26 | I97Y: human TNFα mutein I97Y | 2,500 fold | 7.6 | 330 fold
27 | K65A: human TNFα mutein K65A | 20,000 fold | 0.6 | 33,330 fold
28 | K65W: human TNFα mutein K65W | 500 fold | 0.2 | 3,330 fold
29 | L29S-R32W: human TNFα mutein L29S-R32W | 5,000 fold | > 50 | < 100 fold
30 | L29S-S86T: human TNFα mutein L29S-S86T | 200 fold | > 2 | < 100 fold
31 | L75H: human TNFα mutein L75H | 1,670 fold | 0.7 | 2,500 fold
32 | L75R: human TNFα mutein L75R | < 100 fold | 1 | < 100 fold
33 | L75W: human TNFα mutein L75W | 220 fold | 0.7 | 330 fold
34 | N19D: human TNFα mutein N19D | 5,000 fold | 1 | 5,000 fold
35 | N30T: human TNFα mutein N30T | 2,860 fold | 1.1 | 2,500 fold
36 | N34C: human TNFα mutein N34C | 250 fold | > 2.5 | < 100 fold
